Source: patent US20220396565A1 (Hoffmann-La Roche Inc., priority 2020, published 2022)
Structures can show the parent of a compound that is named as a salt. Where two headings read alike, the source gives them in different places.

Test system: Acinetobacter baumannii ATCC17961
Experiment: Antimicrobial susceptibility testing: 90% growth inhibitory concentration (IC90) determination, Iso-Sensitest broth
Format: cell-based
Conditions: Acinetobacter baumannii
Protocol: The in vitro antimicrobial activity of the compounds was determined according to the following procedure:
The assay used a 10-points Iso-Sensitest broth medium to measure quantitatively the in vitro activity of the compounds against Acinetobacter baumannii ATCC17978 or ATCC17961.
Stock compounds in DMSO were serially twofold diluted (e.g. range from 10 to 0.02 μM final concentration) in 384 wells microtiter plates and inoculated with 49 μl the bacterial suspension in Iso-Sensitest medium to have a final cell concentration of ˜5×10^(5) CFU/ml in a final volume/well of 50 ul/well. Microtiter plates were incubated at 35±2° C.
Bacterial cell growth was determined with the measurement of optical density at k=600 nm each 20 minutes over a time course of 16 h. Growth inhibition was calculated during the logarithmic growth of the bacterial cells with determination of the concentration inhibiting 50% (IC50) and 90% (IC90) of the growth.
Table 1 provides the 90% growth inhibitory concentrations (IC90) in micromoles per liter of the compounds of present invention obtained against the strain Acinetobacter baumannii ATCC17978 or ATCC17961.

[1] = ATCC17961, 90% growth inhibitory concentration, Acinetobacter baumannii ATCC17961, Iso-Sensitest broth, read-out: ATCC 17961 IC90
[2] = ATCC17961, read-out: ATCC 17961 IC90

IC90 [1] | Structure (SMILES) | IC90 [2]
30 nM | Cn1c(-c2ccc(OCF)c(Cl)c2F)cnc1C(=O)Nc1ccc(C(=O)N2CCN(C(=O)[C@@H]3C[C@@H](O)CN3)CC2)c(Cl)c1 [Example 247, 5-[3-chloro-2-fluoro-4-(fluoromethoxy)phenyl]-N-[3-chloro-4-[4-[(2S,4R)-4-hydroxypyrrolidine-2-carbonyl]piperazine-1-carbonyl]phenyl]-1-methyl-imidazole-2-carboxamide] | 
180 nM | COc1ccc(-c2cnc(C(=O)Nc3ccc(C(=O)N4CCN(C(=O)[C@@H]5CCNC[C@@H]5O)CC4)c(Cl)c3)n2C)c(F)c1F [Example 228, N-[3-chloro-4-[4-[(3R,4R)-3-hydroxypiperidine-4-carbonyl]piperazine-1-carbonyl]phenyl]-5-(2,3-difluoro-4-methoxy-phenyl)-1-methyl-imidazole-2-carboxamide] | 
 | COc1ccc(-c2cnc(C(=O)Nc3ccc(C(=O)N4CCN(C(=O)CCOCCNC(=O)CN(C)C)CC4)c(Cl)c3)n2C)c(F)c1F [Example 299, N-[3-Chloro-4-[4-[3-[2-[[2-(dimethylamino)acetyl]amino]ethoxy]propanoyl]piperazine-1-carbonyl]phenyl]-5-(2,3-difluoro-4-methoxy-phenyl)-1-methyl-imidazole-2-carboxamide] | 150 nM
230 nM | COc1ccc(-c2cnc(C(=O)Nc3ccc(C(=O)N4CC5(C4)CN(C(=O)[C@@H]4C[C@@H](O)CN4)C5)c(Cl)c3)n2C)c(F)c1F [Example 112, N-[3-chloro-4-[2-[(2S,4R)-4-hydroxypyrrolidine-2-carbonyl]-2,6-diazaspiro[3.3]heptane-6-carbonyl]phenyl]-5-(2,3-difluoro-4-methoxy-phenyl)-1-methyl-imidazole-2-carboxamide] | 
90 nM | COc1ccc(-c2cnc(C(=O)Nc3ccc(C(=O)N4CCN(C(=O)CCCC(N)=O)CC4)c(Cl)c3)n2C)c(F)c1F [Example 122, N-[4-[4-(5-amino-5-oxo-pentanoyl)piperazine-1-carbonyl]-3-chloro-phenyl]-5-(2,3-difluoro-4-methoxy-phenyl)-1-methyl-imidazole-2-carboxamide] | 
40 nM | Cn1c(-c2ccc(OC(F)F)c(F)c2F)cnc1C(=O)Nc1ccc(C(=O)N2CCC(C(=O)NC3CCNCC3)CC2)c(Cl)c1 [Example 94, 1-(2-chloro-4-(5-(4-(difluoromethoxy)-2,3-difluorophenyl)-1-methyl-1H-imidazole-2-carboxamido)benzoyl)-N-(piperidin-4-yl)piperidine-4-carboxamide formate] | 
60 nM | COc1ccc(-c2cnc(C(=O)Nc3ccc(C(=O)N4CCC(C(=O)NCC5(O)CNC5)CC4)c(Cl)c3)n2C)c(F)c1F [Example 57, 1-[2-chloro-4-[[5-(2,3-difluoro-4-methoxy-phenyl)-1-methyl-imidazole-2-carbonyl]amino]benzoyl]-N-[(3-hydroxyazetidin-3-yl)methyl]piperidine-4-carboxamide formate] | 
170 nM | COc1ccc(-c2cnc(C(=O)Nc3ccc(C(=O)N4CCC(C(=O)N5CCN[C@@H](CO)C5)CC4)c(Cl)c3)n2C)c(F)c1F [Example 30, N-[3-chloro-4-[4-[(3R)-3-(hydroxymethyl)piperazine-1-carbonyl]piperidine-1-carbonyl]phenyl]-5-(2,3-difluoro-4-methoxy-phenyl)-1-methyl-imidazole-2-carboxamide] | 
60 nM | COc1ccc(-c2cnc(C(=O)Nc3ccc(C(=O)N4CCC(C(=O)NCC5CCNCC5)CC4)c(Cl)c3)n2C)c(F)c1F [Example 35, 1-[2-chloro-4-[[5-(2,3-difluoro-4-methoxy-phenyl)-1-methyl-imidazole-2-carbonyl]amino]benzoyl]-N-(4-piperidylmethyl)piperidine-4-carboxamide formate] | 
110 nM | COc1ccc(-c2cnc(C(=O)Nc3ccc(C(=O)N4CCN(C(=O)C5CCC(=O)N5)CC4)c(Cl)c3)n2C)c(F)c1F (centres unmarked) [Example 126, N-[3-chloro-4-[4-(5-oxopyrrolidine-2-carbonyl)piperazine-1-carbonyl]phenyl]-5-(2,3-difluoro-4-methoxy-phenyl)-1-methyl-imidazole-2-carboxamide] | 
80 nM | CN(C)CC(=O)N1CCN(C(=O)c2ccc(NC(=O)c3ncc(-c4ccc(OC(F)F)c(F)c4)n3C)cc2Cl)CC1 [Example 176, N-[3-chloro-4-[4-[2-(dimethylamino)acetyl]piperazine-1-carbonyl]phenyl]-5-[4-(difluoromethoxy)-3-fluoro-phenyl]-1-methyl-imidazole-2-carboxamide formate] | 
110 nM | COc1ccc(-c2cnc(C(=O)Nc3ccc(C(=O)N4CCC(N)CC4)c(Cl)c3)n2C)c(F)c1F [Example 13, N-[4-(4-Aminopiperidine-1-carbonyl)-3-chloro-phenyl]-5-(2,3-difluoro-4-methoxy-phenyl)-1-methyl-imidazole-2-carboxamide formate] | 
60 nM | CCOc1ccc(-c2cnc(C(=O)Nc3ccc(C(=O)N4CCN(C(=O)C5(O)CCNCC5)CC4)c(Cl)c3)n2C)c(F)c1F [Example 170, N-[3-chloro-4-[4-(4-hydroxypiperidine-4-carbonyl)piperazine-1-carbonyl]phenyl]-5-(4-ethoxy-2,3-difluoro-phenyl)-1-methyl-imidazole-2-carboxamide formate] | 
90 nM | COc1ccc(-c2cnc(C(=O)Nc3ccc(C(=O)N4CC(NC(=O)C5CC(CN)C5)C4)c(Cl)c3)n2C)c(F)c1F (centres unmarked) [Example 218, N-(4-(3-(3-(aminomethyl)cyclobutane-1-carboxamido)azetidine-1-carbonyl)-3-chlorophenyl)-5-(2,3-difluoro-4-methoxyphenyl)-1-methyl-1H-imidazole-2-carboxamide 2,2,2-trifluoroacetate] | 
70 nM | COc1ccc(-c2cnc(C(=O)Nc3ccc(C(=O)N4CCC(C(=O)NCC5CNC5)CC4)c(Cl)c3)n2C)c(F)c1F [Example 31, N-(azetidin-3-ylmethyl)-1-[2-chloro-4-[[5-(2,3-difluoro-4-methoxy-phenyl)-1-methyl-imidazole-2-carbonyl]amino]benzoyl] piperidine-4-carboxamide formate] | 
60 nM | Cn1c(-c2ccc(OCC#N)c(F)c2F)cnc1C(=O)Nc1ccc(C(=O)N2CCN(C(=O)[C@@H]3NCC[C@@H]3O)CC2)c(Cl)c1 [Example 210, N-(3-chloro-4-(4-((2R,3S)-3-hydroxypyrrolidine-2-carbonyl)piperazine-1-carbonyl)phenyl)-5-(4-(cyanomethoxy)-2,3-difluorophenyl)-1-methyl-1H-imidazole-2-carboxamide formate] | 
80 nM | Cn1c(-c2ccc(OCC#N)c(F)c2F)cnc1C(=O)Nc1ccc(C(=O)N2CCN(C(=O)[C@@H]3C[C@H](N)CN3)CC2)c(Cl)c1 [Example 209, N-(4-(4-((2S,4S)-4-aminopyrrolidine-2-carbonyl)piperazine-1-carbonyl)-3-chlorophenyl)-5-(4-(cyanomethoxy)-2,3-difluorophenyl)-1-methyl 1H-imidazole-2-carboxamide] | 
30 nM | COc1ccc(-c2cnc(C(=O)Nc3ccc(C(=O)N4CCN(C(=O)[C@@H]5CCNC5)CC4)c(Cl)c3)n2C)c(F)c1F [Example 138, N-[3-chloro-4-[4-[(3R)-pyrrolidine-3-carbonyl]piperazine-1-carbonyl]phenyl]-5-(2,3-difluoro-4-methoxy-phenyl)-1-methyl-imidazole-2-carboxamide formate] | 
 | COc1ccc(-c2cnc(C(=O)Nc3ccc(C(=O)N4CCN(C(=O)CN5CCCC5)CC4)c(Cl)c3)n2C)c(F)c1F [Example 293, N-[3-Chloro-4-[4-(2-pyrrolidin-1-ylacetyl)piperazine-1-carbonyl]phenyl]-5-(2,3-difluoro-4-methoxy-phenyl)-1-methyl-imidazole-2-carboxamide formate] | 30 nM
 | Cn1c(-c2ccc(OCF)c(F)c2F)cnc1C(=O)Nc1ccc(C(=O)N2CCC(C(=O)NCCN)CC2)c(Cl)c1 [Example 88, N-(2-aminoethyl)-1-(2-chloro-4-(5-(2,3-difluoro-4-(fluoromethoxy)phenyl)-1-methyl-1H-imidazole-2-carboxamido)benzoyl) piperidine-4-carboxamide 2,2,2-trifluoroacetate] | 50 nM
70 nM | Cn1c(-c2ccc(OC(F)F)cc2F)cnc1C(=O)Nc1ccc(C(=O)N2CCN(C(=O)CC3CNC3)CC2)c(Cl)c1 [Example 178, N-[4-[4-[2-(azetidin-3-yl)acetyl]piperazine-1-carbonyl]-3-chloro-phenyl]-5-[4-(difluoromethoxy)-2-fluoro-phenyl]-1-methyl-imidazole-2-carboxamide formate] | 
80 nM | COc1ccc(-c2cnc(C(=O)Nc3ccc(C(=O)N4CCC(C(=O)NC5CNC5)CC4)c(Cl)c3)n2C)c(F)c1F [Example 250, N-(azetidin-3-yl)-1-[2-chloro-4-[[5-(2,3-difluoro-4-methoxy-phenyl)-1-methyl-imidazole-2-carbonyl]amino]benzoyl] piperidine-4-carboxamide trifluoroacetate] | 
 | Cn1c(-c2ccc(OC(F)F)c(F)c2F)cnc1C(=O)Nc1ccc(C(=O)N2CCN(C(=O)CC3(O)CCNCC3)CC2)c(Cl)c1 [Example 223, N-(3-chloro-4-(4-(2-(4-hydroxypiperidin-4-yl)acetyl)piperazine-1-carbonyl)phenyl)-5-(4-(difluoromethoxy)-2,3-difluorophenyl)-1-methyl 1H-imidazole-2-carboxamide formate] | 50 nM
